In the supplement of paper PMC8671470:

Assays:
Conditions in all cases: 72 h
ML-2 [1] = experiment: cell viability (% survival relative to DMSO control, bortezomib = 0%); higher = less cytotoxic
In short: (§1)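 Percent survival figures are means of duplicate wells. They were obtained by CellTiter-Glo luminescence after 10 AML and 5 CML cell lines spent 72 h at 37 °C with 5% CO2 in 384-well plates with compounds at 1, 10, 100, 1000 or 10000 nM. Vehicle was set to 100% and a 10 µM positive control to 0%.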

KCL-22 [2] = experiment: as above
In short: as §1

Mono-Mac-6 [3] = experiment: as above
In short: as §1

K-562 [4] = experiment: as above
In short: as §1

HEL [5] = experiment: as above
In short: as §1

SHI-1 [6] = experiment: as above
In short: as §1

BV-173 [7] = experiment: as above
In short: as §1

KG-1 [8] = experiment: as above
In short: as §1

HL-60 [9] = experiment: as above
In short: as §1

LAMA-84 [10] = experiment: as above
In short: as §1

MV4-11 [11] = experiment: as above
In short: as §1

HL-60 [12] = experiment: area under dose-response curve (viability, 1 nM-10 uM) (fraction (0-1)); higher = more sensitive
In short: (§2)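 In 384-well plates, the full library was rescreened in duplicate on HL-60 cells in RPMI 1640 with 10% FBS, at 1–10,000 nM in five tenfold concentrations, for 72 h at 37 °C, 5% CO2. Each run also held DMSO or 100 nM of one of three metabolic inhibitors. Viability was measured by CellTiter-Glo and normalised to DMSO wells and to wells with proteasome inhibitor, present at 10 μM. Any area under the curve comes from four-parameter log-logistic fitting with drc and PharmacoGx.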

ML-2 [13] = tested on: ML-2
In short: (§3)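 Fifteen myeloid leukaemia lines were incubated for 72 h at 37 °C with 5% CO2 across five tenfold doses from 1 to 10,000 nM, in duplicate. ATP luminescence was normalised to vehicle and to a positive control at 10 µM and fitted with a four-parameter log-logistic model. The IC50 came from these dose–response fits.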

KCL-22 [14] = tested on: KCL-22
In short: as §3

Mono-Mac-6 [15] = tested on: Mono-Mac-6
In short: as §3

MOLM-13 = tested on: MOLM-13
In short: as §3

K-562 [16] = tested on: K-562
In short: as §3

HEL [17] = tested on: HEL
In short: as §3

SHI-1 [18] = tested on: SHI-1
In short: as §3

BV-173 [19] = tested on: BV-173
In short: as §3

KG-1 [20] = tested on: KG-1
In short: as §3

THP-1 = tested on: THP-1
In short: as §3

HL-60 [21] = tested on: HL-60
In short: as §3

NOMO-1 = tested on: NOMO-1
In short: as §3

LAMA-84 [22] = tested on: LAMA-84
In short: as §3

KU-812 = tested on: KU-812
In short: as §3

MV4-11 [23] = tested on: MV4-11
In short: as §3

HL-60 [24] = experiment: cell viability (% survival relative to DMSO control); higher = less cytotoxic
In short: as §2

N[C@@H](CCC(=O)N[C@@H](CS)C(=O)NCC(=O)O)C(=O)O [Glutathione]
Conditions	area under dose-response curve, co-treatment: AZD3965 100 nM	area under dose-response curve, co-treatment: DMSO vehicle	area under dose-response curve, co-treatment: GSK2194069 100 nM	area under dose-response curve, co-treatment: pictilisib 100 nM	cell viability, 1 nM [%]	cell viability, 10 nM [%]	cell viability, 100 nM [%]	cell viability, 1000 nM [%]	cell viability, 10000 nM [%]
BV-173 [7]	–	–	–	–	102	99.4	94.4	101	91.9
HEL [5]	–	–	–	–	106	95.7	96.1	94.2	111
HL-60 [9]	–	–	–	–	77.8	94.8	98.7	70.5	105
HL-60 [12]	< 0.0301	< 0.0301	< 0.0301	< 0.0301	–	–	–	–	–
K-562 [4]	–	–	–	–	94.4	106	92.2	93.6	98.7
KCL-22 [2]	–	–	–	–	101	110	91.4	95.6	107
KG-1 [8]	–	–	–	–	106	101	111	95.7	110
LAMA-84 [10]	–	–	–	–	100	98.1	97.6	98.1	104
ML-2 [1]	–	–	–	–	93.2	106	103	93	104
MV4-11 [11]	–	–	–	–	106	99.2	107	80.9	106
Mono-Mac-6 [3]	–	–	–	–	96.2	89.5	84.9	103	89.9
SHI-1 [6]	–	–	–	–	99.3	106	106	97.5	95.3

Conditions	IC50 (cell viability) [µM]
BV-173 [19]	> 10
HEL [17]	> 10
HL-60 [21]	> 10
K-562 [16]	> 10
KCL-22 [14]	> 10
KG-1 [20]	> 10
KU-812	> 10
LAMA-84 [22]	> 10
ML-2 [13]	> 10
MOLM-13	> 10
MV4-11 [23]	> 10
Mono-Mac-6 [15]	> 10
NOMO-1	> 10
SHI-1 [18]	> 10
THP-1	> 10

cell viability [%], HL-60 [24]
Conditions	0.001 µM	0.01 µM	0.1 µM	1 µM	10 µM
co-treatment: AZD3965 100 nM	99.7	98.74	99.1	102	99.8
co-treatment: DMSO vehicle	101	99.78	99.69	98.63	102.2
co-treatment: GSK2194069 100 nM	96.2	100.3	95.1	101	100.27
co-treatment: pictilisib 100 nM	96.6	96.4	86.3	96.3	106

Clc1cc(Cl)c(OCC#CI)cc1Cl [Haloprogin]
Conditions	area under dose-response curve, co-treatment: AZD3965 100 nM	area under dose-response curve, co-treatment: DMSO vehicle	area under dose-response curve, co-treatment: GSK2194069 100 nM	area under dose-response curve, co-treatment: pictilisib 100 nM	cell viability, 1 nM [%]	cell viability, 10 nM [%]	cell viability, 100 nM [%]	cell viability, 1000 nM [%]	cell viability, 10000 nM [%]
BV-173 [7]	–	–	–	–	120	93	104	71.5	0.185
HEL [5]	–	–	–	–	103	101	106	106	0.615
HL-60 [9]	–	–	–	–	92.2	109	108	109	51.4
HL-60 [12]	0.125	0.032	< 0.0301	0.0952	–	–	–	–	–
K-562 [4]	–	–	–	–	93.8	91.4	92.6	95.6	18.1
KCL-22 [2]	–	–	–	–	95.9	97.1	104	73.9	2.51
KG-1 [8]	–	–	–	–	108	101	101	101	0.829
LAMA-84 [10]	–	–	–	–	94.4	94.6	99.9	101	21.7
ML-2 [1]	–	–	–	–	106	108	113	102	-0.066
MV4-11 [11]	–	–	–	–	109	98	101	89	0.356
Mono-Mac-6 [3]	–	–	–	–	103	95.7	98.8	94.1	0.149
SHI-1 [6]	–	–	–	–	97.8	112	107	99.5	62.6

Conditions	IC50 (cell viability) [µM]
BV-173 [19]	1.58
HEL [17]	3.48
HL-60 [21]	> 10
K-562 [16]	5.06
KCL-22 [14]	1.71
KG-1 [20]	3.26
KU-812	2.03
LAMA-84 [22]	5.49
ML-2 [13]	3.25
MOLM-13	3.95
MV4-11 [23]	2.52
Mono-Mac-6 [15]	2.84
NOMO-1	3.09
SHI-1 [18]	> 10
THP-1	1.69

cell viability [%], HL-60 [24]
Conditions	0.001 µM	0.01 µM	0.1 µM	1 µM	10 µM
co-treatment: AZD3965 100 nM	103	102	104	99.73	3.01
co-treatment: DMSO vehicle	102	103	106	104	57.3
co-treatment: GSK2194069 100 nM	95.5	107	96.4	105	71.4
co-treatment: pictilisib 100 nM	92.6	96.3	107	105	14.4
